From ChEMBL document CHEMBL2385072, “Development of oleanane-type triterpenes as a new class of HCV entry inhibitors” (J Med Chem, 2013) come the findings set out here.

What all share (conditions): HEK-293T
Experiment [1] concerns Vesicular stomatitis virus. Description: Antiviral activity against pseudo VSV infected in human 293T cells assessed as inhibition of vesicular stromatis G protein pseudo particles entry at 5 uM after 72 hrs by luciferase reporter gene assay. In kind it is functional. Background: A reporter such as luciferase makes a cellular process visible.
Experiment [2] has as its system Hepatitis C virus. Kind of experiment: Antiviral activity against pseudo HCV infected in human 293T cells assessed as inhibition of HCV pseudo particles entry at 1 uM after 72 hrs by luciferase reporter gene assay. It counts as functional, Hepacivirus hominis.
The test system of experiment [3] is Hepatitis C virus. Kind of experiment: Antiviral activity against pseudo HCV infected in human 293T cells assessed as inhibition of HCV pseudo particles entry at 5 uM after 72 hrs by luciferase reporter gene assay. It counts as functional, Hepacivirus hominis.
Experiment [4] has as its system Vesicular stomatitis virus. Kind of experiment: Antiviral activity against pseudo VSV infected in human 293T cells assessed as inhibition of vesicular stromatis G protein pseudo particles entry at 1 uM after 72 hrs by luciferase reporter gene assay. In kind it is functional.

By inhibition is commonly meant the drop in the measured response relative to a control, in per cent. With `CC1(C)CC[C@]2(C(=O)O[C@@H]3O[C@H](CO)[C@@H](O[C@H]4O[C@H](CO)[C@@H](O)[C@H](O)[C@H]4O)[C@H](O)[C@H]3O)[C@H](O)C[C@]3(C)C(=CC[C@@H]4[C@@]5(C)CC[C@H](O)C(C)(C)[C@@H]5CC[C@]43C)[C@@H]2C1`, the inhibition at 5 µM in experiment [1] was 21.9%; in experiment [3] it was 43.7%. Further, the inhibition at 1 µM amounted to 36.4% in experiment [2] and 21.6% in experiment [4].
The corresponding values for `CC1(C)CC[C@]2(C(=O)NCc3cn([C@@H]4OC[C@@H](O)[C@H](O)[C@@H]4O)nn3)[C@H](O)C[C@]3(C)C(=CC[C@@H]4[C@@]5(C)CC[C@H](O)C(C)(C)[C@@H]5CC[C@]43C)[C@@H]2C1` are 35.2%, 43.2%, 20.3% and 7%.
Consider `COC(=O)[C@]12CCC(C)(C)C[C@H]1[C@H]1C(O)C[C@@H]3[C@@]4(C)CC[C@H](O)C(C)(C)[C@@H]4CC[C@@]3(C)[C@]1(C)C[C@H]2O` (stereo partly specified), for which the inhibition at 5 µM in experiment [1] came to 43.5%; in experiment [3], 51%. For the same compound, the inhibition at 1 µM in experiment [2] turned out to be 22.6%; in experiment [4], 35.8%.
With `CC(=O)O[C@@H]1[C@H](OC(=O)[C@]23CCC(C)(C)C[C@H]2C2=CC[C@@H]4[C@@]5(C)CC[C@H](O)C(C)(C)[C@@H]5CC[C@@]4(C)[C@]2(C)C[C@H]3O)OC[C@@H](OC(C)=O)[C@H]1OC(C)=O`, the inhibition at 5 µM in experiment [1] was found to be 20.1%; in experiment [3], 60.6%. In addition, the inhibition at 1 µM in experiment [2] came to 19.3%; in experiment [4], 17.1%.
Take `COC(=O)[C@]12CCC(C)(C)C[C@H]1C1=CC[C@@H]3[C@@]4(C)CC[C@H](OS(=O)(=O)c5ccc(C)cc5)C(C)(C)[C@@H]4CC[C@@]3(C)[C@]1(C)C[C@H]2O`: the results for the inhibition at 5 µM in experiment [1] and in experiment [3] were 39.3% and 16.4%, respectively. Moreover, the inhibition at 1 µM worked out at 12.3% in experiment [2] and 38.3% in experiment [4].
`CC1(C)CC[C@]2(C(=O)NCc3cn([C@@H]4O[C@H](CO)[C@H](O)[C@H](O)[C@H]4O)nn3)[C@H](O)C[C@]3(C)C(=CC[C@@H]4[C@@]5(C)CC[C@H](O)C(C)(C)[C@@H]5CC[C@]43C)[C@@H]2C1`: the results for the inhibition at 5 µM in experiment [1] and in experiment [3] were 25.3% and 36.3%, respectively. Also, the inhibition at 1 µM came to 16.6% in experiment [2] and 11.5% in experiment [4].
Turning to `CC(=O)OC[C@H]1O[C@@H](n2cc(CNC(=O)[C@]34CCC(C)(C)C[C@H]3C3=CC[C@@H]5[C@@]6(C)CC[C@H](O)C(C)(C)[C@@H]6CC[C@@]5(C)[C@]3(C)C[C@H]4O)nn2)[C@H](OC(C)=O)[C@@H](OC(C)=O)[C@@H]1OC(C)=O`, the values for the inhibition at 5 µM in experiment [1] and in experiment [3] were 12.5% and 89.7%, respectively. In addition, the inhibition at 1 µM is 20.3% in experiment [2] and -9.1% in experiment [4].
Turning to `CC1(C)CC[C@]2(C(=O)NCc3cn([C@@H]4O[C@H](CO)[C@@H](O[C@H]5O[C@H](CO)[C@@H](O[C@H]6O[C@H](CO)[C@@H](O)[C@H](O)[C@H]6O)[C@H](O)[C@H]5O)[C@H](O)[C@H]4O)nn3)[C@H](O)C[C@]3(C)C(=CC[C@@H]4[C@@]5(C)CC[C@H](O)C(C)(C)[C@@H]5CC[C@]43C)[C@@H]2C1`, the inhibition at 5 µM in experiment [1] was 27.4%; in experiment [3], 39%. Also, the results for the inhibition at 1 µM in experiment [2] and in experiment [4] were 12.8% and 19.7%, respectively.
The corresponding values for `CC1(C)CC[C@]2(C(=O)NCc3cn([C@@H]4O[C@H](CO)[C@@H](O)[C@H](O)[C@H]4O)nn3)[C@H](O)C[C@]3(C)C(=CC[C@@H]4[C@@]5(C)CC[C@H](O)C(C)(C)[C@@H]5CC[C@]43C)[C@@H]2C1` are 19.1%, 33.1%, 12.4% and -15.2%.
As to `COC(=O)[C@]12CCC(C)(C)C[C@H]1C1=CC[C@@H]3[C@@]4(C)CC[C@H](OCc5ccccc5)C(C)(C)[C@@H]4CC[C@@]3(C)[C@]1(C)C[C@H]2O`, the inhibition at 5 µM turned out to be 25% in experiment [1] and 5.2% in experiment [3]. Besides, the inhibition at 1 µM in experiment [2] was 10.5%; in experiment [4], 12.6%.
The like results for `CC1(C)CC[C@]2(C(=O)NCc3cn([C@@H]4O[C@H](CO)[C@@H](O)[C@H](O)[C@@H]4O)nn3)[C@H](O)C[C@]3(C)C(=CC[C@@H]4[C@@]5(C)CC[C@H](O)C(C)(C)[C@@H]5CC[C@]43C)[C@@H]2C1` were, in that order, 19.5%, 25%, 17.5% and 17.9%.
For the compound `CC(=O)O[C@@H]1[C@@H](OC(C)=O)[C@H](OC(C)=O)CO[C@H]1n1cc(CNC(=O)[C@]23CCC(C)(C)C[C@H]2C2=CC[C@@H]4[C@@]5(C)CC[C@H](O)C(C)(C)[C@@H]5CC[C@@]4(C)[C@]2(C)C[C@H]3O)nn1`, the inhibition at 5 µM worked out at 47.7% in experiment [1] and 87.3% in experiment [3]. The inhibition at 1 µM in experiment [2] came to 35.9%; in experiment [4], 39.8%.
The corresponding values for `CC1(C)CC[C@]2(C(=O)NCc3cn([C@@H]4O[C@H](CO)[C@@H](O[C@H]5O[C@H](CO)[C@@H](O)[C@H](O)[C@H]5O)[C@H](O)[C@H]4O)nn3)[C@H](O)C[C@]3(C)C(=CC[C@@H]4[C@@]5(C)CC[C@H](O)C(C)(C)[C@@H]5CC[C@]43C)[C@@H]2C1` are 48.1%, 29.7%, 9.3% and 25.8%.
The corresponding values for `COC(=O)[C@]12CCC(C)(C)C[C@H]1C1=CC[C@@H]3[C@@]4(C)CC=CC(C)(C)[C@@H]4CC[C@@]3(C)[C@]1(C)C[C@H]2O` are 9.7%, -8.9%, -3.3% and 7.6%.
For `CC1(C)CC[C@]2(C(=O)O)[C@H](O)C[C@]3(C)C(=CC[C@@H]4[C@@]5(C)CC[C@H](O)C(C)(C)[C@@H]5C[C@H](O)[C@]43C)[C@@H]2C1`, the inhibition at 5 µM in experiment [1] amounted to 5.6%; in experiment [3] it was 53.5%. The inhibition at 1 µM stood at 30.4% in experiment [2] and 1.6% in experiment [4].
The like results for `COC(=O)[C@]12CCC(C)(C)C[C@H]1C1=CC[C@@H]3[C@@]4(C)CC[C@H](O)C(C)(C)[C@@H]4CC[C@@]3(C)[C@]1(C)C[C@H]2OCc1ccccc1` were, in that order, -3.9%, 5.8%, 4.6% and 1.6%.
The like results for `CC(=O)O[C@@H]1[C@H](OC(C)=O)[C@H](n2cc(CNC(=O)[C@]34CCC(C)(C)C[C@H]3C3=CC[C@@H]5[C@@]6(C)CC[C@H](O)C(C)(C)[C@@H]6CC[C@@]5(C)[C@]3(C)C[C@H]4O)nn2)O[C@H](C)[C@H]1OC(C)=O` were, in that order, -10.7%, 71.6%, 17% and 32.6%.
The corresponding values for `COC(=O)[C@]12CCC(C)(C)C[C@H]1C1=CC[C@@H]3[C@@]4(C)CC[C@H](OC)C(C)(C)[C@@H]4CC[C@@]3(C)[C@]1(C)C[C@H]2OC` are 14.2%, 7.9%, 1.7% and 8.5%.
Consider `COC(=O)[C@]12CCC(C)(C)C[C@H]1C1=CC[C@@H]3[C@@]4(C)CC[C@H](OC(C)=O)C(C)(C)[C@@H]4CC[C@@]3(C)[C@]1(C)C[C@H]2OC(C)=O`, for which the inhibition at 5 µM is 24.2% in experiment [1] and 20.1% in experiment [3]. Moreover, the inhibition at 1 µM is 13.5% in experiment [2] and 15.8% in experiment [4].
The like results for `CC1(C)CC[C@]2(C(=O)O)[C@H](OS(=O)(=O)O)C[C@]3(C)C(=CC[C@@H]4[C@@]5(C)CC[C@H](O)C(C)(C)[C@@H]5CC[C@]43C)[C@@H]2C1` were, in that order, 34.7%, -2.7%, 1% and 38.5%.
For `CC(=O)O[C@@H]1[C@H](OC(C)=O)[C@H](n2cc(CNC(=O)[C@]34CCC(C)(C)C[C@H]3C3=CC[C@@H]5[C@@]6(C)CC[C@H](O)C(C)(C)[C@@H]6CC[C@@]5(C)[C@]3(C)C[C@H]4O)nn2)OC[C@H]1OC(C)=O`, the inhibition at 5 µM in experiment [1] was found to be 32.2%; in experiment [3], 65.8%. Besides, the values for the inhibition at 1 µM in experiment [2] and in experiment [4] were 21.8% and 29.3%, respectively.
The like results for `CC(=O)OC[C@H]1O[C@@H](O[C@H]2[C@H](OC(C)=O)[C@@H](OC(C)=O)[C@H](n3cc(CNC(=O)[C@]45CCC(C)(C)C[C@H]4C4=CC[C@@H]6[C@@]7(C)CC[C@H](O)C(C)(C)[C@@H]7CC[C@@]6(C)[C@]4(C)C[C@H]5O)nn3)O[C@@H]2COC(C)=O)[C@H](OC(C)=O)[C@@H](OC(C)=O)[C@H]1OC(C)=O` were, in that order, 32.1%, 71.8%, 24.6% and 39%.
The like results for `CC1(C)CC[C@]2(C(=O)O[C@@H]3O[C@H](CO)[C@@H](O)[C@H](O)[C@H]3O)[C@H](O)C[C@]3(C)C(=CC[C@@H]4[C@@]5(C)CC[C@H](O)C(C)(C)[C@@H]5CC[C@]43C)[C@@H]2C1` were, in that order, 5.6%, 67.5%, 30.6% and 12.9%.
With `CC1(C)CC[C@]2(C(=O)O)[C@H](O)C[C@]3(C)C(=CC[C@@H]4[C@@]5(C)CCC(N)C(C)(C)[C@@H]5CC[C@]43C)[C@@H]2C1` (stereo partly specified), the inhibition at 5 µM is 28.4% in experiment [1] and 10.5% in experiment [3]. The inhibition at 1 µM came to 12.1% in experiment [2] and 23.6% in experiment [4].
